In US6339042B1, “Herbicidal N-cyclohexadienyl heteroaryloxyacetamides” (American Cyanamid Co., priority 1999, dated 2002):

Key:
Conditions in all cases: three weeks after treatment
[1] = test system: Echinochloa crus-galli; experiment: Post-emergence herbicidal evaluation, ECHCG
[2] = test system: Lolium perenne; experiment: Pre-emergence herbicidal evaluation, LOLPE; assay type: in vivo
Text: (§1) The treated pots are then placed on greenhouse benches, watered and cared for in accordance with conventional greenhouse procedures.

[3] = test system: Hordeum vulgare; experiment: Pre-emergence herbicidal evaluation, HORVW; assay type: in vivo
Text: as §1

[4] = test system: Triticum aestivum; experiment: Post-emergence herbicidal evaluation, TRZAW
[5] = test system: Setaria viridis; experiment: Pre-emergence herbicidal evaluation, SETVI; assay type: in vivo
Text: as §1

[6] = test system: Amaranthus tuberculatus; experiment: Pre-emergence herbicidal evaluation, AMATA; assay type: in vivo
Text: as §1

[7] = test system: Glycine max; experiment: Pre-emergence herbicidal evaluation, GLXMA; assay type: in vivo
Text: as §1

[8] = test system: Apera spica venti; experiment: Pre-emergence herbicidal evaluation, APESV; assay type: in vivo
Text: as §1

[9] = test system: Echinochloa crus-galli; experiment: Pre-emergence herbicidal evaluation, ECHCG; assay type: in vivo
Text: as §1

[10] = test system: Lolium perenne; experiment: Post-emergence herbicidal evaluation, LOLPE
Protocol: (§2) Each pot is examined three weeks after treatment and phytotoxicity is assessed according to the rating system set forth below.
(§3) These acetone solutions are diluted with water and the resulting formulations applied at dosage levels equivalent of about 0.4 to 0.1 kg per hectare of test compound per pot. After spraying the plants are placed on greenhouse benches and are cared for in the usual manner, commensurate with conventional greenhouse practices.

[11] = test system: Triticum aestivum; experiment: Pre-emergence herbicidal evaluation, TRZAW; assay type: in vivo
Text: as §1

[12] = test system: Zea mays; experiment: Post-emergence herbicidal evaluation, ZEAMX
[13] = test system: Apera spica venti; experiment: Post-emergence herbicidal evaluation, APESV
Protocol: (§4) The compounds of the invention are tested for pre- and post-emergence herbicidal activity.
as §2, §3

[14] = test system: Oryza sativum; experiment: Pre-emergence herbicidal evaluation, ORYSA; assay type: in vivo
Text: as §1

[15] = test system: Hordeum vulgare; experiment: Post-emergence herbicidal evaluation, HORVW
[16] = test system: Galium aparine; experiment: Post-emergence herbicidal evaluation, GALAP
[17] = test system: Oryza sativum; experiment: Post-emergence herbicidal evaluation, ORYSA
[18] = test system: Amaranthus tuberculatus; experiment: Post-emergence herbicidal evaluation, AMATA; assay type: in vivo
[19] = test system: Zea mays; experiment: Pre-emergence herbicidal evaluation, ZEAMX; assay type: in vivo
Text: as §1

[20] = test system: Glycine max; experiment: Post-emergence herbicidal evaluation, GLXMA
Protocol: as §2, §3

[21] = test system: Alopecurus myosuroides; experiment: Pre-emergence herbicidal evaluation, ALOMY; assay type: in vivo
Text: as §1

[22] = test system: Alopecurus myosuroides; experiment: Post-emergence herbicidal evaluation, ALOMY
[23] = test system: Setaria viridis; experiment: Post-emergence herbicidal evaluation, SETVI
Protocol: as §4, §2, §3

CCc1nnc(OCC(=O)N(CC)C2=CC(C)(C)CC(C)=C2)s1 [Example 6]
phytotoxicity rating ECHCG ([1]; 0.100 kg/ha): 0 (0 - No effect) | phytotoxicity rating ECHCG ([1]; 0.200 kg/ha): 0 (0 - No effect) | phytotoxicity rating ECHCG ([1]; 0.400 kg/ha): 0 (0 - No effect) | phytotoxicity rating LOLPE ([2]; 0.100 kg/ha): 0 (0 - No effect) | phytotoxicity rating LOLPE ([2]; 0.200 kg/ha): 0 (0 - No effect) | phytotoxicity rating LOLPE ([2]; 0.400 kg/ha): 5 (5 - Definite injury) | phytotoxicity rating LOLPE ([2]; 0.800 kg/ha): 7 (7 - Good herbicidal effect) | phytotoxicity rating HORVW ([3]; 0.100 kg/ha): 0 (0 - No effect) | phytotoxicity rating HORVW ([3]; 0.200 kg/ha): 0 (0 - No effect) | phytotoxicity rating HORVW ([3]; 0.400 kg/ha): 1 (1 - Trace effect) | phytotoxicity rating HORVW ([3]; 0.800 kg/ha): 3 (3 - Moderate effect) | phytotoxicity rating TRZAW ([4]; 0.100 kg/ha): 0 (0 - No effect) | phytotoxicity rating TRZAW ([4]; 0.200 kg/ha): 0 (0 - No effect) | phytotoxicity rating TRZAW ([4]; 0.400 kg/ha): 1 (1 - Trace effect) | phytotoxicity rating SETVI ([5]; 0.200 kg/ha): 5 (5 - Definite injury) | phytotoxicity rating SETVI ([5]; 0.400 kg/ha): 8 (8 - Approaching complete kill) | phytotoxicity rating SETVI ([5]; 0.800 kg/ha): 9 (9 - Complete kill) | phytotoxicity rating AMATA ([6]; 0.100 kg/ha): 0 (0 - No effect) | phytotoxicity rating AMATA ([6]; 0.200 kg/ha): 0 (0 - No effect) | phytotoxicity rating AMATA ([6]; 0.400 kg/ha): 0 (0 - No effect) | phytotoxicity rating AMATA ([6]; 0.800 kg/ha): 5 (5 - Definite injury) | phytotoxicity rating GLXMA ([7]; 0.100 kg/ha): 0 (0 - No effect) | phytotoxicity rating GLXMA ([7]; 0.200 kg/ha): 0 (0 - No effect) | phytotoxicity rating GLXMA ([7]; 0.400 kg/ha): 0 (0 - No effect) | phytotoxicity rating GLXMA ([7]; 0.800 kg/ha): 0 (0 - No effect) | phytotoxicity rating APESV ([8]; 0.100 kg/ha): 0 (0 - No effect) | phytotoxicity rating APESV ([8]; 0.200 kg/ha): 0 (0 - No effect) | phytotoxicity rating APESV ([8]; 0.400 kg/ha): 0 (0 - No effect) | phytotoxicity rating APESV ([8]; 0.800 kg/ha): 9 (9 - Complete kill) | phytotoxicity rating ECHCG ([9]; 0.100 kg/ha): 3 (3 - Moderate effect) | phytotoxicity rating ECHCG ([9]; 0.200 kg/ha): 6 (6 - Herbicidal effect) | phytotoxicity rating ECHCG ([9]; 0.400 kg/ha): 8 (8 - Approaching complete kill) | phytotoxicity rating ECHCG ([9]; 0.800 kg/ha): 9 (9 - Complete kill) | phytotoxicity rating LOLPE ([10]; 0.100 kg/ha): 0 (0 - No effect) | phytotoxicity rating LOLPE ([10]; 0.200 kg/ha): 0 (0 - No effect) | phytotoxicity rating LOLPE ([10]; 0.400 kg/ha): 0 (0 - No effect) | phytotoxicity rating TRZAW ([11]; 0.100 kg/ha): 0 (0 - No effect) | phytotoxicity rating TRZAW ([11]; 0.200 kg/ha): 0 (0 - No effect) | phytotoxicity rating TRZAW ([11]; 0.400 kg/ha): 0 (0 - No effect) | phytotoxicity rating TRZAW ([11]; 0.800 kg/ha): 2 (2 - Slight effect) | phytotoxicity rating ZEAMX ([12]; 0.100 kg/ha): 0 (0 - No effect) | phytotoxicity rating ZEAMX ([12]; 0.200 kg/ha): 0 (0 - No effect) | phytotoxicity rating ZEAMX ([12]; 0.400 kg/ha): 0 (0 - No effect) | phytotoxicity rating APESV ([13]; 0.100 kg/ha): 0 (0 - No effect) | phytotoxicity rating APESV ([13]; 0.200 kg/ha): 0 (0 - No effect) | phytotoxicity rating APESV ([13]; 0.400 kg/ha): 1 (1 - Trace effect) | phytotoxicity rating ORYSA ([14]; 0.100 kg/ha): 0 (0 - No effect) | phytotoxicity rating ORYSA ([14]; 0.200 kg/ha): 0 (0 - No effect) | phytotoxicity rating ORYSA ([14]; 0.400 kg/ha): 3 (3 - Moderate effect) | phytotoxicity rating ORYSA ([14]; 0.800 kg/ha): 7 (7 - Good herbicidal effect) | phytotoxicity rating HORVW ([15]; 0.100 kg/ha): 0 (0 - No effect) | phytotoxicity rating HORVW ([15]; 0.200 kg/ha): 0 (0 - No effect) | phytotoxicity rating HORVW ([15]; 0.400 kg/ha): 0 (0 - No effect) | phytotoxicity rating GALAP ([16]; 0.100 kg/ha): 0 (0 - No effect) | phytotoxicity rating GALAP ([16]; 0.200 kg/ha): 0 (0 - No effect) | phytotoxicity rating GALAP ([16]; 0.400 kg/ha): 4 (4 - Injury) | phytotoxicity rating ORYSA ([17]; 0.100 kg/ha): 0 (0 - No effect) | phytotoxicity rating ORYSA ([17]; 0.200 kg/ha): 1 (1 - Trace effect) | phytotoxicity rating ORYSA ([17]; 0.400 kg/ha): 2 (2 - Slight effect) | phytotoxicity rating AMATA ([18]; 0.100 kg/ha): 0 (0 - No effect) | phytotoxicity rating AMATA ([18]; 0.200 kg/ha): 0 (0 - No effect) | phytotoxicity rating AMATA ([18]; 0.400 kg/ha): 0 (0 - No effect) | phytotoxicity rating ZEAMX ([19]; 0.100 kg/ha): 0 (0 - No effect) | phytotoxicity rating ZEAMX ([19]; 0.200 kg/ha): 0 (0 - No effect) | phytotoxicity rating ZEAMX ([19]; 0.400 kg/ha): 0 (0 - No effect) | phytotoxicity rating ZEAMX ([19]; 0.800 kg/ha): 0 (0 - No effect) | phytotoxicity rating GLXMA ([20]; 0.100 kg/ha): 3 (3 - Moderate effect) | phytotoxicity rating GLXMA ([20]; 0.200 kg/ha): 4 (4 - Injury) | phytotoxicity rating GLXMA ([20]; 0.400 kg/ha): 4 (4 - Injury) | phytotoxicity rating ALOMY ([21]; 0.200 kg/ha): 5 (5 - Definite injury) | phytotoxicity rating ALOMY ([21]; 0.400 kg/ha): 6 (6 - Herbicidal effect) | phytotoxicity rating ALOMY ([21]; 0.800 kg/ha): 9 (9 - Complete kill) | phytotoxicity rating ALOMY ([22]; 0.100 kg/ha): 0 (0 - No effect) | phytotoxicity rating ALOMY ([22]; 0.200 kg/ha): 4 (4 - Injury) | phytotoxicity rating ALOMY ([22]; 0.400 kg/ha): 8 (8 - Approaching complete kill) | phytotoxicity rating SETVI ([23]; 0.100 kg/ha): 0 (0 - No effect) | phytotoxicity rating SETVI ([23]; 0.200 kg/ha): 0 (0 - No effect) | phytotoxicity rating SETVI ([23]; 0.400 kg/ha): 0 (0 - No effect)
